Measurements as given in patent US20250099446A1, “HYBRID PHARMACEUTICAL COMPOSITION OBTAINED BY CONJUGATION OF A PROTON PUMP INHIBITOR AND A CARBON ANHYDRASE INHIBITOR” (EXO LAB ITALIA, S.r.l., priority 2022, published 2025).

What was measured:
Test in all cases: Stopped-Flow kinetic assay, carbonic anhydrase inhibition
CA I = CA I (Homo sapiens, UniProt P00915)
Protocol: (§1) All hybrid compounds and individual CAI moieties with OH/SH group were tested for inhibition of off-target isoforms CA I and II and CAI IV, IX and XII by a Stopped-Flow kinetic assay.

CA II = CA II (Homo sapiens, UniProt P00918)
Protocol: as §1

CA IV = CA IV (Homo sapiens, UniProt P22748)
Protocol: as §1

CA IX = CA IX (Homo sapiens, UniProt Q16790)
Protocol: as §1

CA XII = CA XII (Homo sapiens, UniProt O43570)
Chain of CA XII (O43570 25-354): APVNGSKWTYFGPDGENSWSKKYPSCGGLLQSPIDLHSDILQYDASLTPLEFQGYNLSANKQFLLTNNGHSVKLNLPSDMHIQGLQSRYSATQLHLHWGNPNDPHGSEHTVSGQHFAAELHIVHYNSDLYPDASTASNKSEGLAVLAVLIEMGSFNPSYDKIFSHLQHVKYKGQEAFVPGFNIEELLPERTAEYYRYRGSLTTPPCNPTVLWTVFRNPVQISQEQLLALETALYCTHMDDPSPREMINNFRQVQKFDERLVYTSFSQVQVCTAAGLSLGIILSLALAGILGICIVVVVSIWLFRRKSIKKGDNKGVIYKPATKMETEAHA
Protocol: as §1

Chain of CA IV (P22748 19-284): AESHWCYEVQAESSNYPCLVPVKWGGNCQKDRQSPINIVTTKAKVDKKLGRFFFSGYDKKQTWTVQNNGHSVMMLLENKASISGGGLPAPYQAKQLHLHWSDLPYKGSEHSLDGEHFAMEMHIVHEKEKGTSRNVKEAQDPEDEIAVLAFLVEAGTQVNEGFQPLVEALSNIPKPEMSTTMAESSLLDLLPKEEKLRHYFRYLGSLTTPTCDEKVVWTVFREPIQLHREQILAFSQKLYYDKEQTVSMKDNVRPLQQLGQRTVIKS
Chain of CA I (P00915 whole entry): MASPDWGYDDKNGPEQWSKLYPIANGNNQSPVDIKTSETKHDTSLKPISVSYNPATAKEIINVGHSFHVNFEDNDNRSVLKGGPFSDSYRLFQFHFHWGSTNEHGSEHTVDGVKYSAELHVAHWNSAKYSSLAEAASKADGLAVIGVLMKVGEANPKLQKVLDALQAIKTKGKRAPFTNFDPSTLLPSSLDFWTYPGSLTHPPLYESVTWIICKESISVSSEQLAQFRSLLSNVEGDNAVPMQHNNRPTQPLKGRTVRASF

Structure (SMILES)	Ki (CA I) [nM]	Ki (CA II) [nM]	Ki (CA IV) [nM]	Ki (CA IX) [nM]	Ki (CA XII) [nM]
Cc1c(OCC(F)(F)F)ccnc1C[S+]([O-])c1nc2ccccc2n1C(=O)OCCOc1ccc2oc(=O)ccc2c1 (stereo not shown) [Compound A1, 2-((2-Osso-2H-cromen-6-il)ossi)etil 2-(((3-metil-4-(2,2,2-trifluoroetossi)piridin-2-il)metil)sulfinil)-1H-benzo[d]imidazolo-1 carbossilato]	> 10000	> 10000	14.4	79.2	53
O=c1ccc2cc(OCCO)ccc2o1 [Compound G1A, 6-(2-hydroxyethoxy)-2H-chromen-2-one]	> 10000	> 10000		306	
O=c1ccc2ccc(OCCO)cc2o1 [Compound G1B, 7-(2-idrossietossi)-2H-cromen-2-one]		> 10000		334	
Cc1c(OCC(F)(F)F)ccnc1C[S+]([O-])c1nc2ccccc2n1C(=O)OCCOc1ccc2ccc(=O)oc2c1 (stereo not shown) [Compound A2, 2-((2-Oxo-2H-chromen-7-yl)oxy)ethyl 2-(((3-methyl-4-(2,2,2-trifluoroethoxy)pyridin-2-yl)methyl)sulfinyl)-1H-benzo[d]imidazole-1 carboxylate]	> 10000	> 10000	10.3	97.2	60.3
Cc1c(OCC(F)(F)F)ccnc1C[S+]([O-])c1nc2ccccc2n1C(=O)OCCCOc1ccc2oc(=O)ccc2c1 (stereo not shown) [Compound A3]	> 10000	> 10000	6.4	41.6	8.9
Cc1c(OCC(F)(F)F)ccnc1C[S+]([O-])c1nc2ccccc2n1C(=O)OCCCOc1ccc2ccc(=O)oc2c1 (stereo not shown) [Compound A4]	> 10000	> 10000	7.7	47	20.6
